Like-named read-outs stand apart in the source and are kept apart here.
What was measured:
cruzipain [1] = target: T1, cruzipain (Trypanosoma cruzi, UniProt P25779); test: Inhibition of T. cruzi cruzipain (Z-Phe-Arg-AMC fluorogenic substrate); type: biochemical; details: read-out: Cruzipain % Inhib100
T1 construct: endogenous in cells; host or cells: T. cruzi epimastigotes, Tulahuen 2 strain
Experimental: Initially, we tested the dithioles as inhibitors of the protease cruzipain from T. cruzi at a concentration of 100 μM.
Cruzipain was purified to homogeneity from epimastigotes of the Tulahuen 2 strain by ConA-Sepharose affinity chromatography, as previously described. Cruzipain (2.5 μM ε = 58,285 M^−1·cm^−1) was incubated in 50 mM acetate buffer pH 5.5 with 50 mM DTT and 100 μM inhibitor was added, shaking the solution for 15 min at 27 °C. The derivatives were added diluted in DMSO, and the controls contained the same solvent concentration. The concentration of DMSO never exceeded 1% in the reaction medium. E-64 was used as a positive control of inhibition. Then, the fluorogenic substrate Z-Phe-Arg-AMC (100 μM) was added and the fluorescence was measured during 10 min at intervals of 3 s (excitation at 350 nm and emission at 460 nm) using a Varioskan Flash Spectrophotometer. From the slope of the negative control, we calculated the total (100%) enzyme activity, while the slopes obtained in the presence of the compounds yielded the percentage of remaining enzyme activity. The percentage of enzyme inhibition was determined as […]. The experiments were done in duplicate.

[2] = tested on: epimastigotes of T. cruzi (Tulahuen 2 strain); test: Anti-T. cruzi test in vitro (epimastigote growth inhibition); type: cell-based, Trypanosoma cruzi; details: for IC50: Trypanosoma cruzi, read-out: IC50 against T. cruzi; for SI (selectivity index): macrophages (J774.1) vs T. cruzi epimastigotes
Experimental: (§1) To evaluate the anti-trypanosomal activity of the synthesized 3H-[1,2]dithioles we used T. cruzi, Tulahuen 2 strain (discrete typing unit, DTU, TcVI [18]) in the epimastigote form. […] To establish the selectivity of the compounds against the parasite, unspecific cytotoxicity against mammalian cells (J774.1 murine macrophages) was studied for the most relevant derivatives. The selectivity indexes (SI) were also determined (Table 1).
We used epimastigotes of the Tulahuen 2 strain (DTU, Tc VI) growing in an axenic milieu (BHI-Tryptose). Cells from a 5–7-day-old culture were inoculated in fresh culture milieu to give an initial concentration of 1 × 10^6 cells/mL. The absorbance at 600 nm of the cells in culture was measured every day. At day 5, the milieu was inoculated with different quantities of the compounds from a stock solution in DMSO (DMSO concentration in the culture milieu never exceeded 0.4%). The control was made in the presence of 0.4% DMSO and in the absence of compounds. […] At day 5, the absorbance of the culture was measured and related to the control. The IC50 value was taken as the concentration of drug needed to reduce the absorbance ratio to 50%.

[3] = target: T2, Trypanosoma cruzi triosephosphate isomerase (TcTIM) (Trypanosoma cruzi, UniProt P52270); test: Inhibition of enzymatic activity of TcTIM; type: biochemical; details: for inhibition at 25 µM: read-out: TcTIM % Inhib25; for inhibition at 200 µM: read-out: TcTIM % Inhib200; for IC50: isolated enzyme, 2 h incubation at 36 °C
T2 construct: made in house; host or cells: Escherichia coli
Experimental: In order to investigate if the 3H-[1,2]dithioles inhibit TcTIM, we initially tested the inhibitory capacity of the compounds at a concentration of 200 μM and then at 25 μM.
Expression and purification of protein: TcTIM was expressed in Escherichia coli and purified as described in the literature. After purification, the enzyme, dissolved in 100 mM triethanolamine, 10 mM EDTA and 1 mM dithiothreitol (pH 8), was precipitated with ammonium sulfate (75% saturation) and stored at 4 °C. Before use, extensive dialysis against 100 mM triethanolamine/10 mM EDTA (pH 7.4) was performed. Protein concentration was determined by absorbance at 280 nm (ε = 36,440 M^−1·cm^−1).
Enzymatic activity assays. Enzymatic activity was determined following the conversion of glyceraldehyde 3-phosphate into dihydroxyacetone phosphate. The decrease in absorbance at 340 nm was followed in a multicell Cary spectrophotometer at 25 °C. The reaction mixture (1 mL, pH 7.4) contained 100 mM triethanolamine, 10 mM EDTA, 0.2 mM NADH, 1 mM glyceraldehyde 3-phosphate, and 0.9 units of α-glycerol phosphate dehydrogenase. The reaction was initiated by addition of 5 ng/mL of the TcTIM.
For inactivation studies, TcTIM was incubated at a concentration of 5 mg/mL in a buffer containing 100 mM triethanolamine, 10 mM EDTA, pH 7.4 and 10% of DMSO at 36 °C. The mixture also contained the compounds at the indicated concentrations. Compounds were dissolved in DMSO. After 2 h, […] was withdrawn and added to 1 mL of reaction mixture for the activity assay. None of the molecules tested here affected the activity of α-glycerol phosphate dehydrogenase, the enzyme used for trapping the product.
The IC50 value was taken as the concentration of drug needed to reduce the enzymatic activity to 50%. The experiments were performed in triplicate.

cruzipain [4] = target: T1, cruzipain; test: Inhibition of T. cruzi cruzipain (Z-Phe-Arg-AMC fluorogenic substrate); type: biochemical; details: isolated enzyme
[5] = tested on: J774.1 murine macrophages; test: Unspecific in vitro cytotoxicity of mammalian cells (MTT); type: cell-based; details: Mus musculus, 48 h exposure, read-out: IC50 against Macrophages
Experimental: as §1
J774.1 murine macrophage cells (ATCC, Manassas, VA, USA) were grown in DMEM culture milieu containing 4 mM L-glutamine and supplemented with 10% heat-inactivated fetal calf serum. […] Afterwards, cells were exposed for 48 h to the compounds (25–400 μM) or vehicle for control (0.4% DMSO), and additional controls (cells in medium) were used in each test. Cell viability was then assessed by measuring the mitochondria-dependent reduction of MTT (3-(4,5-dimethylthiazol-2-yl)-2,5-diphenyltetrazolium bromide) to formazan. For this purpose, MTT in sterile PBS (0.2% glucose) pH 7.4 was added to the macrophages to achieve a final concentration of 0.1 mg/mL and the cells were incubated at 37 °C for 3 h. After removing the medium, formazan crystals were dissolved in 180 μL of DMSO and 20 μL of MTT buffer (0.1 M glycine, 0.1 M NaCl, 0.5 mM EDTA, pH 10.5) and the absorbance at 560 nm was measured. The IC50 was defined as the drug concentration at which 50% of the cells were viable, relative to the control (no drug added), and was determined by analysis using OriginLab8.5® sigmoidal regression (% of viable cells vs. logarithm of the compound concentration). Samples were performed in triplicate.

[6] = percentage of enzymatic inhibition at 100 μM
[7] = epimastigotes, Tulahuen 2 strain, triplicate
[8] = percentage of enzymatic inhibition at 25 μM
[9] = percentage of enzymatic inhibition at 200 μM

T2 sequence (P52270 whole entry): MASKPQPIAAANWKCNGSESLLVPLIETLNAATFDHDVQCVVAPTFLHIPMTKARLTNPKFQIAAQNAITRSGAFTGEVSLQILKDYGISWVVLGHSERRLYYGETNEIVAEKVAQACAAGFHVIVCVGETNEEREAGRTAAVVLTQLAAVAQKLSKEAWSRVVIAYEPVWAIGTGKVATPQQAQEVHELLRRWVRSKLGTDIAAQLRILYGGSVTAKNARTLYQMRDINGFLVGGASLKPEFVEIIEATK
T1 sequence (P25779 123-467): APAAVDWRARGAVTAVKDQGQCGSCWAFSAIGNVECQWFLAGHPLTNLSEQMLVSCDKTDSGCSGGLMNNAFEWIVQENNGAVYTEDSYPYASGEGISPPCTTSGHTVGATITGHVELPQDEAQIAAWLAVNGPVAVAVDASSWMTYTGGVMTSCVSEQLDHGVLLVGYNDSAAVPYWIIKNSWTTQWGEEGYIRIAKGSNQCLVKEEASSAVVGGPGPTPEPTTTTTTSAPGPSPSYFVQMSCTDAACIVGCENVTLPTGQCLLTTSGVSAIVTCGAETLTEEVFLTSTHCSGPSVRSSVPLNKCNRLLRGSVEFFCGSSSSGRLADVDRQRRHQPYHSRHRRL

SMILES | inhibition at 100 µM (cruzipain [1]; [6]) [%] | IC50 [2, 7] [µM] | IC50 (cruzipain [4]) [µM] | IC50 [3] [µM] | inhibition at 25 µM [3, 8] [%] | inhibition at 200 µM [3, 9] [%] | also measured
O=C(Cc1ccccc1)Oc1ccc(-c2cc(=S)ss2)cc1 [Derivative 1] |  |  |  |  |  |  | inhibition at 100 µM (cruzipain [1]): 21.3 ± 0.3%; IC50 ([2]; TULAHUEN): > 25 µM; inhibition at 25 µM [3]: 33 ± 1.9%; inhibition at 200 µM [3]: 77%
COc1ccc(-c2cc(=S)ss2)cc1 [Derivative 5] | 89 ± 0.5 | > 25 | 4 ± 2 | 1.2 ± 0.05 | 80 ± 2.3 | 86 | IC50 against T. cruzi [2, 7]: inactive
Oc1ccc(-c2cc(=S)ss2)cc1 [Derivative 6] | 59.3 ± 0.3 | 25 ± 1 |  |  | 35 ± 3 | 71 | SI (selectivity index) [2]: 2.0; IC50 [5]: 51 ± 2 µM
O=C(/C=C/c1ccccc1)Oc1ccc(-c2cc(=S)ss2)cc1 [Derivative 7] | 78.4 ± 0.6 | > 25 |  |  |  | 14 | 
O=C(/C=C/c1ccc(C(=O)Oc2ccc(-c3cc(=S)ss3)cc2)cc1)c1ccccc1 [Derivative 8] | 58 ± 0.1 | > 25 |  |  |  |  | 
O=C(Oc1ccc(-c2cc(=S)ss2)cc1)c1ccc(/C=C/C(=O)c2ccccc2O)cc1 [Derivative 9] | 77.9 ± 0.6 | 25 ± 0.5 |  |  |  | 50 | SI (selectivity index) [2]: 2.5; IC50 [5]: 63 ± 2 µM
CC(=O)COc1ccc(-c2cc(=S)ss2)cc1 [Derivative 10] | 73.9 ± 0.1 | > 25 |  |  | 61 ± 1 | 70 | 
O=C(COc1ccc(-c2cc(=S)ss2)cc1)c1ccccc1 [Derivative 11] | 96.3 ± 0.7 | > 25 | 17.1 ± 3.6 |  |  |  | 
O=C(COc1ccc(-c2cc(=S)ss2)cc1)c1ccc2ccccc2c1 [Derivative 12] | 91.5 ± 0.6 | > 25 | 21.6 ± 6.1 |  |  | 70 | TcTIM % Inhib25 [3, 8]: ni ^d
O=C(CS/C(C(=O)c1ccccc1)=C1\C=C(c2ccc(O)cc2)SS1)c1ccccc1 [Derivative 13] | 61 ± 0.3 | 5.5 ± 0.9 |  | 3.35 ± 0.14 | 75 ± 6 | 86 | SI (selectivity index) [2]: 6.2; IC50 [5]: 34 ± 0.5 µM
COc1ccc(C2=C/C(=C(\SCC(=O)c3ccccc3)C(=O)c3ccccc3)SS2)cc1 [Derivative 16] | 62.3 ± 0.3 | > 25 |  | 7.53 ± 0.1 | 63 ± 0.1 | 77 | 
COc1ccc(C2=C/C(=C(\SCC(=O)c3ccc4ccccc4c3)C(=O)c3ccc4ccccc4c3)SS2)cc1 [Derivative 17] | 82.6 ± 0.6 | > 25 |  |  | 52 ± 2.5 | 81 | 
O=C(C[S+]=c1cc(-c2ccc(O)cc2)ss1)c1ccc2ccccc2c1 [Derivative 18] | 77.1 ± 0.1 | > 25 |  | 11.03 ± 0.03 | 75 ± 0.3 | 70 | 
COc1ccc(-c2cc(=[S+]CC(C)=O)ss2)cc1 [Derivative 19] | 90.5 ± 0.7 | > 25 | 11.3 ± 0.6 | 3.26 ± 0.05 | 73 ± 3.2 | 95 | IC50 against T. cruzi [2, 7]: inactive
COc1ccc(-c2cc(=[S+]CC(=O)c3ccccc3)ss2)cc1 [Derivative 20] | 72 ± 0.1 | > 25 |  |  |  |  | 
COc1ccc(-c2cc(=[S+]CC(=O)c3ccc4ccccc4c3)ss2)cc1 [Derivative 21] | 90.2 ± 0.6 | > 25 | 17.7 ± 3.9 |  |  | 65 | 
